Source: ChEMBL document CHEMBL5055649, “Synthesis and biological evaluation of 3,5-substituted pyrazoles as possible antibacterial agents” (Bioorg Med Chem, 2021)
Values after ≈ are worked out from the molar mass of the structure shown. Active and inactive are the calls of the source. The rule behind the calls is not given here.

What was measured:
[1] = test system: Staphylococcus aureus; assay: Antibacterial activity against Staphylococcus aureus ATCC 25923 assessed as bacterial growth inhibition measured after 20 hrs by CLSI protocol based broth microdilution method; type: functional
[2] = test system: Escherichia coli; assay: Antibacterial activity against Escherichia coli MG1655 assessed as bacterial growth inhibition measured after 20 hrs by CLSI protocol based broth microdilution method; type: functional
[3] = test system: Bacillus subtilis; assay: Antibacterial activity against Bacillus subtilis 168 assessed as diameter of zone of inhibition by agar plate diffusion method; type: functional
[4] = test system: Escherichia coli; assay: Antibacterial activity against Escherichia coli assessed as zone of inhibition by plate agar diffusion method; type: functional
[5] = test system: Bacillus subtilis; assay: Bacteriostatic activity against Bacillus subtilis 168 assessed as reduction in bacterial growth measured after 20 hrs by CLSI protocol based broth microdilution method; type: functional, organism-based
[6] = Cytotoxicity against mouse 3T3-L1 cells assessed as cell viability at 25 ug/ml measured up to 72 hrs y MTT assay relative to control; type: cell-based; conditions: at 25 µg/mL, read-out: Activity
[7] = test system: Bacillus subtilis; assay: Antibacterial activity against Bacillus subtilis 168 assessed as bacterial growth inhibition measured after 20 hrs by CLSI protocol based broth microdilution method; type: functional
[8] = test system: Staphylococcus aureus; assay: Bacteriostatic activity against Staphylococcus aureus ATCC 25923 assessed as reduction in bacterial growth measured after 20 hrs by CLSI protocol based broth microdilution method; type: functional, organism-based
[9] = test system: 3T3-L1; assay: Cytotoxicity against mouse 3T3-L1 cells assessed as reduction in cell viability at 50 ug/ml measured after 24 to 72 hrs y MTT assay; type: cell-based; conditions: time 24-72 hrs, dose 50 µg/ml
[10] = test system: Bacillus subtilis; assay: Induction of morphological changes in Bacillus subtilis 168 assessed as bulbous distortion at 2.5 to 2.75 times MIC incubated for 3 hr by phase-contrast microscopic analysis; type: functional, organism-based
[11] = test system: Bacillus subtilis; assay: Induction of morphological changes in Bacillus subtilis 168 assessed as cell lysis at 2.5 to 3.5 times MIC incubated for 2 hrs by phase-contrast microscopic analysis; type: functional, organism-based
[12] = test system: Bacillus subtilis; assay: Induction of morphological changes in Bacillus subtilis 168 assessed as immediate cell lysis at >8 ug/ml incubated for 120 mins by phase-contrast microscopic analysis; type: functional, organism-based; conditions: dose > 8.0 µg/ml
[13] = test system: Bacillus subtilis; assay: Induction of morphological changes Bacillus subtilis 168 assessed as morphological changes by measuring cell lysis with cell debris and ghost cells at 3 times MIC incubated for 3 hr by phase-contrast microscopic analysis; type: functional, organism-based
[14] = test system: Bacillus subtilis; assay: Induction of morphological changes in Bacillus subtilis 168 assessed as cell lysis at 2.5 to 3.5 times MIC incubated for 1 hr by phase-contrast microscopic analysis; type: functional, organism-based

MIC95 [1] [µg/mL]	MIC95 [2] [µg/mL]	Compound	also measured
> 128	> 128	Oc1cccc(-c2cc(-c3ccc(-c4ccccc4)cc3)n[nH]2)c1	–
> 128	> 128	COc1ccc(OC)c(-c2cc(-c3ccc(-c4ccc(Cl)cc4)cc3)n[nH]2)c1	–
> 128	> 128	COc1ccc(-c2cc(-c3ccc(-c4ccccc4)cc3)n[nH]2)cc1OC	diameter of the inhibition zone (DIZ) [3]: 13 mm; diameter of the inhibition zone (DIZ) [4]: 20 mm
> 128	> 128	COc1ccc(-c2cc(-c3ccc(-c4ccc(Cl)cc4)cc3)n[nH]2)cc1	–
> 128	> 128	CC(C)(C)c1ccc(-c2ccc(-c3cc(-c4ccc(OCc5ccccc5)cc4)[nH]n3)cc2)cc1	–
> 128	> 128	COc1ccc(-c2cc(-c3ccc(-c4ccc(Cl)cc4)cc3)n[nH]2)cc1OC	–
> 128	> 128	Clc1ccc(-c2ccc(-c3cc(-c4ccc(OCc5ccccc5)cc4)[nH]n3)cc2)cc1	–
32 (≈ 99.3 µM)	> 128	COc1cc(-c2cc(-c3ccc(C(C)(C)C)cc3)n[nH]2)ccc1O	Activity [5]: Active; viability at 72 h, 25 ug/ml [6]: 85%; MIC [7]: 16 µg/mL (≈ 49.6 µM); Activity [8]: Active
> 128	> 128	COc1ccc(-c2cc(-c3ccc(-c4ccc(C(C)(C)C)cc4)cc3)n[nH]2)cc1	–
> 128	> 128	COc1ccc(OC)c(-c2cc(-c3ccc(-c4ccc(C(C)(C)C)cc4)cc3)n[nH]2)c1	–
8 (≈ 23.4 µM)	> 128	COc1cc(-c2cc(-c3ccc(-c4ccccc4)cc3)n[nH]2)ccc1O	Activity [9]: Non-Toxic; Activity [5]: Active; Activity [10]: Active; Activity [11]: Active; Activity [12]: inactive; MIC [7]: 8 µg/mL (≈ 23.4 µM); Activity [8]: Active; Activity [13]: Active; Activity [14]: Active
> 128	> 128	COc1ccc(-c2cc(-c3ccc(-c4ccccc4)cc3)n[nH]2)cc1	–
> 128	> 128	COc1ccc(OC)c(-c2cc(-c3ccc(-c4ccccc4)cc3)n[nH]2)c1	–
> 128	> 128	Clc1ccc(-c2ccc(-c3cc(-c4cccc(OCc5ccccc5)c4)[nH]n3)cc2)cc1	–
> 128	> 128	COc1ccc(-c2cc(-c3ccc(-c4ccc(C(C)(C)C)cc4)cc3)n[nH]2)cc1OC	–
> 128	> 128	COc1cc(-c2cc(-c3ccc(-c4ccc(Cl)cc4)cc3)n[nH]2)ccc1OCc1ccccc1	–
> 128	> 128	COc1ccc(-c2cc(-c3ccc(-c4ccc(Cl)cc4)cc3)n[nH]2)c(OC)c1	–
